Read-outs that look alike come from different tables or passages of the source.
Tests used:
[1] = test system: Ld39 promastigotes (SSG-resistant); test: In vitro anti-promastigote activity, Ld39; assay type: cell-based, Leishmania donovani; conditions: read-out: Anti-promastigotes activity (IC50, μM) Ld39
Protocol: (§1) Cell Lines and Cell Culture. Promastigotes of Leishmania donovani (wild type LdAG83, pentamidine-resistant LdAG83-PentR50, and SSG-resistant Ld39) and Leishmania major [MHOM/IL/67/JERICHO II (Lm50122), from ATCC] were used in this study.
(§2) In Vitro Anti-Promastigote Activity. The viability of promastigotes was determined by the Cell Titer 96° Aqueous Assay (Promega) that employs a tetrazolium compound (MTS, 2-(4,5-Dimethylthiazol-2-yl-)-5-[3-(carboxymethoxy)phenyl]-2-(4-sulfophenyl)-2H-tetrazolium) and electron coupling reagent, phenazine methosulfate (PMS).^7 Promastigotes were seeded into 96-well flat bottom microtiter plate at 1×10^5 cells per well in a final volume of 100 μL medium and incubated with a series concentration of synthetic flavonoid dimers or known antileishmanials. The parasites were incubated at 27° C. for 72 hrs. Fresh solution of 2 mg/mL MTS and 0.92 mg/mL PMS were prepared in a ratio of 20:1 (MTS:PMS). After 72 hrs incubation, 10 μL of MTS:PMS mixture was added into each well of microtiter plate. The plate was then incubated at 27° C. for 4 hrs for color development. After 4 hrs incubation, the OD values were determined at 490 nm using automatic microtiter plate reader (Bio-Rad).

[2] = Cytotoxicity over LCC6, LCC6MDR and L929 cell lines; assay type: cell-based, human, mouse; conditions: human; cancer lines LCC6, LCC6MDR and/or L929
Protocol: (b) Tumor Cell Line Cytotoxicity. The tumor cytotoxicity assays of flavonoid dimers were performed against LCC6, LCC6MDR and L929 cell lines. The cells were grown in supplemented DMEM media in an atmosphere of 95% air and 5% CO2 at 37° C. In brief, LCC6, LCC6MDR and L929 cells were seeded into 96-well flat bottom microtiter plate at 1×10^4 cells per well in a final volume of 100 μL media, respectively. A graded dose of flavonoid dimers was added into wells. The plate was incubated at 37° C. for 72 hrs at the atmosphere 5% CO2 in the air. The % of survivors was determined.

[3] = Tumor cell line cytotoxicity of flavonoid dimers, LCC6MDR; assay type: cell-based, human; conditions: human, LCC6MDR cells, IC50 of compound alone
Procedure, shortened: (§3)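 LCC6, LCC6MDR and L929 cells seeded at 1×10^4 cells/well and exposed to graded doses of flavonoid dimers. Incubation 72 hrs at 37° C., 5% CO2. Read-out: % survivors.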

[4] = test system: LdAG83 promastigotes (wild type); test: In vitro anti-promastigote activity, LdAG83; assay type: cell-based, Leishmania donovani; conditions: read-out: Anti-promastigotes activity (IC50, μM) LdAG83
Protocol: as §1, §2

Raw264.7 cells = test: Cytotoxicity, mouse macrophage Raw264.7; assay type: cell-based
Protocol: (§4) (a) Mouse Macrophage Raw 264.7 and Primary Mouse PEM Cells. The cytotoxicity assay of reference antileishmanial compounds and the compounds of this invention was performed against mouse macrophage cell line, Raw 264.7 and primary mouse PEM cells in order to calculate the therapeutic index (IC50 value for cytotoxicity of the compounds divided by IC50 value for antileishmanial activity of the compounds). The cells were grown in supplemented DMEM media in an atmosphere of 95% air with 5% CO2 at 37° C. In brief, Raw264.7 cells and PEM cells were seeded into 96-well flat bottom microtiter plate at 1×10^4cells and 2×10^4 cells per well in a final volume of 100 μL media, respectively. A graded dose of flavonoid dimers or antileishmanials was added into wells. The plate was incubated at 37° C. for 72 hrs at the atmosphere 5% CO2 in the air. The % of survivors was determined.

[5] = test system: LdAG83PentR50 promastigotes (pentamidine-resistant); test: microbe, parasite or virus in culture; assay type: cell-based, Leishmania donovani; conditions: read-out: Anti-promastigotes activity (IC50, μM) LdAG83PentR50
Protocol: as §1
No pentamidine or sodium stibogluconate was added to the L. donovani wild type (LdAG83) and L. major wild type (Lm50122). The mouse macrophage cell line, Raw264.7, was used for the determination of the relative toxicity of the compounds of the invention. […] They were maintained at 37° C. in a humidified atmosphere with 5% CO2. The cells were split constantly after a confluent monolayer has been formed. To split cells, the plate was washed briefly with PBS, treated with 0.05% trypsin-EDTA and harvested by centrifugation.
as §2

Pgp (LCC6MDR cells) = Pgp (LCC6MDR cells) (Homo sapiens, UniProt P08183); test: Cell proliferation assay: Pgp-modulating activity, reversal of anticancer drug resistance in LCC6MDR cells; conditions: for RF (Relative Fold), cpd at 0.5 μM: RF = (IC50 without modulator)/(IC50 with 0.5 μM modulator), paclitaxel
Sequence of Pgp (LCC6MDR cells) (P08183 whole entry): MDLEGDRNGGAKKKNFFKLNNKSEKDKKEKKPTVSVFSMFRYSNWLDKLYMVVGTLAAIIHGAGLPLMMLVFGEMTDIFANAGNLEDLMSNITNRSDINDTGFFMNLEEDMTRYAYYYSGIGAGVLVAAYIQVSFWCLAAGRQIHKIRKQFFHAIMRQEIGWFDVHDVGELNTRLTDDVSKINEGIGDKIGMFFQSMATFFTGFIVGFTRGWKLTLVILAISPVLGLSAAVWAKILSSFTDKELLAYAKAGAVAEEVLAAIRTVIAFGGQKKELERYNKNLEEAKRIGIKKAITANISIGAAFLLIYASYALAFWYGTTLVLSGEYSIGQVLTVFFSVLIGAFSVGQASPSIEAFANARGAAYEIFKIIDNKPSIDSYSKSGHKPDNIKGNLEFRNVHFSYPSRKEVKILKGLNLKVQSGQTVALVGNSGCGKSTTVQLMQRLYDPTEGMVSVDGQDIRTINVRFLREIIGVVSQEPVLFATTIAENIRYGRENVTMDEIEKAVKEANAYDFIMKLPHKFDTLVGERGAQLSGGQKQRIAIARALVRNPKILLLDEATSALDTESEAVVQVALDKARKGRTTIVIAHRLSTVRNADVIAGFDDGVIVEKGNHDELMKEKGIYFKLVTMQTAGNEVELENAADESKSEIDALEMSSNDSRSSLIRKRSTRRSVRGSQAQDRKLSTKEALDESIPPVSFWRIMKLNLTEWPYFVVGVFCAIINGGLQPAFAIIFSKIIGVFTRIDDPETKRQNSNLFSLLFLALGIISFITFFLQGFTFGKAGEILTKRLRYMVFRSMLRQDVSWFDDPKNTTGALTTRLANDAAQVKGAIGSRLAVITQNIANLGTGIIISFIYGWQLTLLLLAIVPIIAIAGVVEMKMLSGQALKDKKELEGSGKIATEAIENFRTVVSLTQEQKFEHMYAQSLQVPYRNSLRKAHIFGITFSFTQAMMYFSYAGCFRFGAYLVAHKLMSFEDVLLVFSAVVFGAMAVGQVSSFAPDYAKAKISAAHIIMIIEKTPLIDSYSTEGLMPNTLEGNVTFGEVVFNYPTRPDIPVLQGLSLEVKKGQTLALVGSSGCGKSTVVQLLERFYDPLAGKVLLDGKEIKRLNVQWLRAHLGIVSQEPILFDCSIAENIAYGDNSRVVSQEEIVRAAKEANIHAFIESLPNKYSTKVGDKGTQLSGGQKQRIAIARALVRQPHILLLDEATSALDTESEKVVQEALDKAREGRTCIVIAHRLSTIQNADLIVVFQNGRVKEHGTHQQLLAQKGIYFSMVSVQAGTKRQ
Protocol: Cell Proliferation Assay. 6,000 cells of LCC6 or LCC6MDR and anticancer drugs (paclitaxel, vinblastine, vincristine, doxorubicin and mitoxantrone) were mixed with or without modulators to a final volume of 200 μL in each well of 96-well plates. […] The plates were then incubated for 5 days at 37° C. […] IC50 values were calculated from the dose-response curves of MTS assays (Prism 4.0).

L929 cells = test: Cytotoxicity of flavonoid dimers, L929 mouse fibroblast; assay type: cell-based
Procedure, shortened: as §3

[6] = as above; assay type: cell-based; conditions: mouse, L929 fibroblast cells, IC50 of compound alone, 72 hrs, mouse fibroblast
Procedure, shortened: as §3

[7] = Tumor cell line cytotoxicity of flavonoid dimers, LCC6; assay type: cell-based, human; conditions: human, LCC6 cells, IC50 of compound alone
Procedure, shortened: as §3

Lm50122 promastigotes = test: In vitro anti-promastigote activity, Lm50122; assay type: cell-based, Leishmania major; conditions: Leishmania major, 72 h, read-out: Anti-promastigotes activity (IC50, μM) Lm50122
Protocol: as §1, §2

Leishmania promastigotes = test: Anti-promastigote activity over the Leishmania strains; assay type: cell-based, Leishmania donovani, Leishmania major; conditions: for IC50: different Leishmania strains, read-out: Anti-promastigote IC50, range over strains
Protocol: as §1, §2

Ld39 amastigotes = test: In vitro anti-amastigote activity, Ld39 amastigotes in mouse PEM; conditions: for IC50: Leishmania donovani, in Mus musculus
Protocol: Peritoneal elicited macrophages (PEM) from mouse were obtained as previously described. A round cover slip (12 mm in diameter) was placed into each well of 24-well culture plate. Mouse macrophages were resuspended in supplemented DMEM media containing 10% heat inactivated fetal bovine serum (v/v), 100 U/mL penicillin and 100 μg/mL streptomycin and seeded into each well at a cell density of 1×10^5 cells per 500 μL. Macrophages were allowed to attach overnight and the non-adherent cells were removed by gentle washing twice with unsupplemented DMEM media. […] Non-internalized promastigotes were removed by washing with unsupplemented DMEM media for two times. Infected macrophages were further incubated in 500 μL supplemented DMEM media in the presence or absence of flavonoid dimers or known antileishmanials for 72 hrs at 37° C. After incubation, the cover slips were stained with Giemsa and the amastigotes inside each macrophage (100 macrophages per treatment) were counted under microscope. The percentage of macrophages infected and number of amastigotes per 100 macrophages was enumerated.
The % of infected macrophage and the number of amastigotes per 100 macrophages were counted by staining with Giemsa.

PEM cells = test: Cytotoxicity, primary mouse peritoneal elicited macrophage (PEM); assay type: cell-based
Protocol: as §4

LCC6MDR cells = test: Tumor cell line cytotoxicity of flavonoid dimers, LCC6MDR; assay type: cell-based, human; conditions: IC50 of compound alone, 72 hrs
Procedure, shortened: as §3

LCC6 cells = test: Tumor cell line cytotoxicity of flavonoid dimers, LCC6; assay type: cell-based, human; conditions: IC50 of compound alone, 72 hrs
Procedure, shortened: as §3

[8] = 72 h, read-out: Ld39 (IC50, mM)
[9] = Mus musculus, Macrophage, Table 7, cytotoxicity
[10] = cytotoxicity, primary mouse macrophage, 72 hrs
[11] = Leishmania donovani, 72 h, 3 days at 27° C., MTS

CC(C)(C)OC(=O)N(CCOCCOc1ccc(-c2cc(=O)c3ccccc3o2)cc1)CCOCCOc1ccc(-c2cc(=O)c3ccccc3o2)cc1 [Compound 16a, 1,13-Bis[4′-(4H-chromen-4-on-2-yl)phenyl]-N-(tert-butyloxycarbonyl)-1,4,10,13-tetraoxa-7-azamidecane]
IC50 ([1]; Leishmania donovani, 72 h): 1.6 µM
IC50 at 72 h [2]: < 8 µM
IC50 at 72 h [3]: 6.2 ± 0.8 µM
IC50 ([4]; Leishmania donovani, 72 h): 3.2 µM
IC50 (Raw264.7 cells; Mus musculus, RAW264.7, 72 h): > 100 µM
IC50 ([5]; Leishmania donovani, 72 h): 1.1 µM
Ability to restore paclitaxel sensitivity, fold higher than verapamil (Pgp (LCC6MDR cells); 1.0 μM, LCC6MDR): 24 fold
EC50 (Pgp (LCC6MDR cells); EC50 of compounds for reversing anticancer drug resistance (nM), Paclitaxel, LCC6MDR): 320 ± 40 nM
Therapeutic index (Pgp (LCC6MDR cells); IC50 of compounds for L929/EC50 of compounds for lowering paclitaxel drug resistance): 34.7
RF (Relative Fold), cpd at 0.5 μM (Pgp (LCC6MDR cells); LCC6MDR): (11.1)
IC50 (L929 cells; IC50 of compound alone, 72 hrs, mouse fibroblast, read-out: Cytotoxicity (μM) L929): 11.1 µM
IC50 at 72 h [6]: < 11.1 µM
IC50 at 72 h [7]: 8 ± 2.5 µM

O=c1cc(-c2ccc(OCCOCCN(CCOCCOc3ccc(-c4cc(=O)c5ccccc5o4)cc3)Cc3ccncc3)cc2)oc2ccccc12 [Compound 21, 1,13-Bis[4′-(4H-chromen-4-on-2-yl)phenyl]-N-(4-pyridylmethyl)-1,4,10,13-tetraoxa-7-azamidecane]
IC50 ([1]; Leishmania donovani, 72 h): 0.19 ± 0.03 µM
IC50 (Lm50122 promastigotes): 0.35 ± 0.07 µM
IC50 at 72 h [3]: > 100 µM
Fold lower anti L. donovani promastigote activity than amphotericin B (Leishmania promastigotes; L. donovani): 2 fold
IC50 (Leishmania promastigotes): 0.13 to 0.35 µM
IC50 ([4]; Leishmania donovani, 72 h): 0.18 ± 0.02 µM
% of macrophage infected (Ld39 amastigotes; 5 μM, solvent control 100%): 20%
Number of amastigotes per 100 macrophages (Ld39 amastigotes; 5 μM, solvent control 887): 48
IC50 (Ld39 amastigotes; [8]): 0.00063 ± 0.00012 mM
IC50 (Ld39 amastigotes; read-out: IC50 against Ld39 amastigotes): 0.00063 mM
IC50 (Raw264.7 cells; Mus musculus, RAW264.7, 72 h): > 100 µM
IC50 ([5]; Leishmania donovani, 72 h): 0.13 ± 0.04 µM
RF (Relative Fold), cpd at 0.5 μM (Pgp (LCC6MDR cells); LCC6MDR): (6.9)
IC50 at 72 h [6]: 26.4 ± 2.7 µM
IC50 (PEM cells; [9]): > 88 µM
IC50 (PEM cells; [10]): > 88 µM
IC50 at 72 h [7]: > 100 µM

O=C(O)CCC(=O)N(CCOCCOc1ccc(-c2cc(=O)c3ccccc3o2)cc1)CCOCCOc1ccc(-c2cc(=O)c3ccccc3o2)cc1 [Compound 23a, 1,13-Bis[4′-(4H-chromen-4-on-2-yl)phenyl]-N-(4-hydroxy-1,4-dioxobutyl)-1,4,10,13-tetraoxa-7-azamidecane]
IC50 ([1]; 3 days at 27° C., MTS): > 100 µM
IC50 (LCC6MDR cells): > 100 µM
IC50 ([4]; 3 days at 27° C., MTS): > 100 µM
IC50 (Raw264.7 cells; 72 hrs): 65 µM
IC50 ([5]; 3 days at 27° C., MTS): 27 µM
RF (Relative Fold), cpd at 0.5 μM (Pgp (LCC6MDR cells); LCC6MDR): (1.1)
IC50 (LCC6 cells): 78.4 ± 8.1 µM

Cc1ccc(S(=O)(=O)N(CCOCCOc2ccc(-c3cc(=O)c4ccccc4o3)cc2)CCOCCOc2ccc(-c3cc(=O)c4ccccc4o3)cc2)cc1 [Compound 25a, 1,13-Bis[4′-(4H-chromen-4-on-2-yl)phenyl]-N-(4-methylbenzenesulfonyl)-1,4,10,13-tetraoxa-7-azamidecane]
IC50 ([1]; 3 days at 27° C., MTS): > 100 µM
IC50 (LCC6MDR cells): > 100 µM
IC50 ([4]; 3 days at 27° C., MTS): 100 µM
IC50 (Raw264.7 cells; 72 hrs): > 100 µM
RF (Relative Fold), cpd at 0.5 μM (Pgp (LCC6MDR cells); LCC6MDR): (5.8)
IC50 (L929 cells): > 100 µM
IC50 (LCC6 cells): > 100 µM

CCCCCCCCCCCCCCCCOP(=O)([O-])OCC[N+](C)(C)C [Miltefosine, reference compound]
IC50 [1, 11]: 17.3 ± 2.1 µM
IC50 (Lm50122 promastigotes; 3 days at 27° C., MTS): 9.8 ± 2.3 µM
IC50 (Leishmania promastigotes): 4.3 to 17.3 µM
IC50 (Ld39 amastigotes; [8]): 0.016 ± 0.0064 mM
IC50 (Raw264.7 cells; Mus musculus, RAW264.7, 72 h): 20 µM
IC50 ([5]; Leishmania donovani, 72 h): 9.3 ± 2.4 µM
IC50 (PEM cells; [9]): 75.3 ± 9.4 µM
IC50 (PEM cells; [10]): 75.3 ± 9.4 µM

NC[C@@H]1O[C@H](O[C@H]2[C@@H](O)[C@H](O[C@@H]3[C@@H](O)[C@H](N)C[C@H](N)[C@H]3O[C@H]3O[C@H](CO)[C@@H](O)[C@H](O)[C@H]3N)O[C@@H]2CO)[C@H](N)[C@@H](O)[C@@H]1O [Paromomycin, paromomycin, reference compound]
IC50 [1, 11]: 24.5 ± 2.4 µM
IC50 (Lm50122 promastigotes; 3 days at 27° C., MTS): 94.5 ± 5.5 µM
IC50 (Leishmania promastigotes): 24.5 to 94.5 µM
IC50 [4, 11]: 62.6 ± 9.5 µM
IC50 (Ld39 amastigotes; [8]): 0.041 mM
IC50 (Raw264.7 cells; Mus musculus, RAW264.7, 72 h): > 100 µM
IC50 ([5]; Leishmania donovani, 72 h): 85.5 ± 13.5 µM
IC50 (PEM cells; [9]): > 100 µM
IC50 (PEM cells; [10]): > 100 µM

N=C(N)c1ccc(OCCCCCOc2ccc(C(=N)N)cc2)cc1 [Pentamidine, reference compound]
IC50 [1, 11]: 5.3 ± 0.8 µM
IC50 (Lm50122 promastigotes; 3 days at 27° C., MTS): 7.7 ± 1 µM
IC50 (Leishmania promastigotes): 5.3 to 74.7 µM
IC50 [4, 11]: 16.2 µM
IC50 (Ld39 amastigotes; [8]): > 0.03 mM
IC50 (Raw264.7 cells; Mus musculus, RAW264.7, 72 h): 30 µM
IC50 ([5]; Leishmania donovani, 72 h): 74.7 µM
IC50 (PEM cells; [9]): 30.4 ± 10.5 µM
IC50 (PEM cells; [10]): 30.4 µM

Source: US8980848B2, “Flavonoid dimers and their use” (The Hong Kong Polytechnic University, priority 2010, dated 2015)
